From patent publication US11485725B2, “Derivatives of piperlongumine and uses thereof” (Auransa Inc., priority 2017, dated 2022)
Like-named read-outs stand apart in the source and are kept apart here.

Assays:
[1] = system: HCT116 (colorectal cancer) cells; assay: Resazurin-based cell viability assay using colorectal cancer cells; details: Homo sapiens, HCT-116, 72 hr incubation
Description: Determination of Potency of Compounds in Cell Viability Assay Using Colorectal Cancer Cells
The blue dye resazurin-based assay was performed to determine cell viability and used according to manufacture protocol (Sigma®). HCT116 (colorectal cancer) cells were seeded in the DMEM medium (10% FBS serum). Approximately 1,500 cells were plated per well in 96 well plates. Cells were allowed to grow at 37° C. for 24 hr in 5% CO2 environment in a humidified incubator. Serially diluted compounds (100 μL) were added to the culture plate after 24 hr. After addition of compounds, plates were incubated for 72 hr. Experiment was terminated at the designated incubation time by replacing the medium with 100 μL of 1 mM of resazurin (Sigma®) prepared in culture medium (DMEM) and were further incubated in culture conditions for 4-6 hours. Fluorescence was recorded using a multimodal plate reader (Biotek Synergy Neo®) at an excitation wavelength of 535 nm and emission wavelength of 590 nm to obtain relative fluorescence units. Data analysis was done by subtracting the background fluorescence (medium blank) value from each reading and then normalizing with the vehicle control (DMSO treated cells) to obtain percent survival/proliferation. IC50 was calculated from percent survival values using GraphPad Prism® (see Table 1).

MOLP-8 = assay: In vitro cell viability assay (CellTiter-Glo, ATP levels), multiple myeloma cells; assay type: cell-based; details: Homo sapiens, MOLP-8, 168 h
Description: (§1) In Vitro Cell Viability Assay
(§2) The present disclosure provides a method for inhibiting cell viability, as measured by ATP levels. The method for inhibiting cell viability is drawn to contacting various cancer cells with the compounds described herein at various concentrations. The cancer cell lines were maintained in culture conditions at 37° C. in an atmosphere of 5% CO2 in air. The cells growing in an exponential growth phase were harvested and counted for plating. Compounds were incubated in two cancer cell types representing multiple myeloma (MOLP-8) and triple negative breast cancer (DU4475). Cells were plated at an optimized cell numbers per well in 96-well plates and allowed to attach to the plates overnight at approximately 80% confluency.
(§3) After addition of compounds, plates were incubated for 7-day. At the end of incubation period on day 8, media was removed and replaced with a solution of CellTiter-Glo™ reagent (Promega®) according to protocol. Luminescence was read using an EnVision® multi-label plate reader (Perkin-Elmer®), and signal intensity was calculated relative to positive and negative control wells. Cisplatin was included as the positive control. A dose-response calculation was performed in a non-linear regression fit and by using the Hill equation to calculate a concentration-response curve and 50% inhibitory concentration (IC50) values for each compound.
(§4) The average IC50 values of compounds 1-15 in multiple myeloma (MOLP-8) and triple negative breast cancer (DU4475) cells are shown in Table 1.

DU4475 = assay: In vitro cell viability assay (CellTiter-Glo, ATP levels), triple negative breast cancer cells; assay type: cell-based; details: Homo sapiens, DU-4475, 168 h
Description: as §1, §2, §3, §4

[2] = 7-day incubation, CellTiter-Glo, average values, read-out: MOLP-8 IC50
[3] = 7-day incubation, CellTiter-Glo, average values, read-out: DU4475 IC50

Compound	IC50 [1] [nM]	IC50 (MOLP-8; [2]) [nM]	IC50 (DU4475; [3]) [nM]	IC50 (MOLP-8; read-out: average IC50 in multiple myeloma (MOLP-8) cells) [nM]	IC50 (DU4475; read-out: average IC50 in triple negative breast cancer (DU4475) cells) [nM]
COc1cc(/C=C/C(=O)N2CC(C)(C)C=CC2=O)cc2c1OCCO2 [Compound 30, (E)-1-(3-(8-methoxy-2,3-dihydrobenzo[b][1,4]dioxin-6-yl)acryloyl)-5,5-dimethyl-5,6-dihydropyridin-2(1H)-one]	9900	2800	5500		
CC1(/C=C/C(=O)N2CCC=CC2=O)CCN(C(=O)OC(C)(C)C)CC1 [Compound 64, tert-butyl (E)-4-methyl-4-(3-oxo-3-(6-oxo-3,6-dihydropyridin-1(2H)-yl)prop-1-en-1-yl)piperidine-1-carboxylate]	4320				
C/C(=C\c1ncccn1)C(=O)N1CCC=CC1=O [Compound 42, (E)-1-(2-methyl-3-(pyrimidin-2-yl)acryloyl)-5,6-dihydropyridin-2(1H)-one]	2200				
CN1CCC(/C=C/C(=O)N2CCC=CC2=O)CC1 [Compound 41, (E)-1-(3-(1-methylpiperidin-4-yl)acryloyl)-5,6-dihydropyridin-2(1H)-one]	1240				
O=C1C=CCCCN1C(=O)/C=C/c1cccnc1 [Compound 4, (E)-1-(3-(pyridin-3-yl)acryloyl)-1,5,6,7-tetrahydro-2H-azepin-2-one]	1900	520	590		
C/C(=C/C1CCN(CC2CC2)CC1)C(=O)N1CCC=CC1=O [Compound 79, (Z)-1-(3-(1-(cyclopropylmethyl)piperidin-4-yl)-2-methylacryloyl)-5,6-dihydropyridin-2(1H)-one]	2690	1030	1910		
COc1cnc(/C=C/C(=O)N2CCC=CC2=O)nc1 [Compound 63, (E)-1-(3-(5-methoxypyrimidin-2-yl)acryloyl)-5,6-dihydropyridin-2(1H)-one]	2110	290	480		
CC(C)(C)/C=C/C(=O)N1CCC=CC1=O [Compound 28, (E)-1-(4,4-dimethylpent-2-enoyl)-5,6-dihydropyridin-2(1H)-one]	3530	490	1380		
O=C1C=CCCN1C(=O)/C=C/C1CCN(C2COC2)CC1 [Compound 45, (E)-1-(3-(1-(oxetan-3-yl)piperidin-4-yl)acryloyl)-5,6-dihydropyridin-2(1H)-one]	3240	720	1350		
C/C(=C/C1CCN(C(=O)Nc2ccc(F)cc2)CC1)C(=O)N1CCC=CC1=O [Compound 78]	4850	950	1530		
O=C1C=CCCN1S(=O)(=O)/C=C/c1cccnc1 [Compound 11, (E)-1-((2-(pyridin-3-yl)vinyl)sulfonyl)-5,6-dihydropyridin-2(1H)-one]	1900	500	580		
CC1(C)C=CC(=O)N(C(=O)/C=C/c2ncccn2)C1 [Compound 33, (E)-5,5-dimethyl-1-(3-(pyrimidin-2-yl)acryloyl)-5,6-dihydropyridin-2(1H)-one]	4070	560	1300		
O=C1C=CCCN1C(=O)/C=C/c1ncccn1 [Compound 7, (E)-1-(3-(pyrimidin-2-yl)acryloyl)-5,6-dihydropyridin-2(1H)-one]	1500	570	490		
C/C(=C\C1CCNCC1)C(=O)N1CCC=CC1=O [Compound 88, (E)-1-(2-methyl-3-(piperidin-4-yl)acryloyl)-5,6-dihydropyridin-2(1H)-one 2,2,2-trifluoroacetate]	7060	3780	6560		
C/C(=C\C1CCN(C(=O)OC(C)(C)C)CC1)C(=O)N1CCC=CC1=O [Compound 72, tert-butyl (E)-4-(2-methyl-3-oxo-3-(6-oxo-3,6-dihydropyridin-1(2H)-yl)prop-1-en-1-yl)piperidine-1-carboxylate]	10300	2670	4430		
Cc1n[nH]c(C)c1/C=C/C(=O)N1CCC=CC1=O [Compound 81, (E)-1-(3-(3,5-dimethyl-1H-pyrazol-4-yl)acryloyl)-5,6-dihydropyridin-2(1H)-one]	5100	1490	2700		

Compound	IC50 [1] [nM]	IC50 (MOLP-8; [2]) [nM]	IC50 (DU4475; [3]) [nM]	IC50 (MOLP-8; read-out: average IC50 in multiple myeloma (MOLP-8) cells) [nM]	IC50 (DU4475; read-out: average IC50 in triple negative breast cancer (DU4475) cells) [nM]
COc1cc(/C=C/C(=O)N2C(=O)C=CCC2(C)C)cc(OC)c1OC [Compound 94, (E)-6,6-dimethyl-1-(3-(3,4,5-trimethoxyphenyl)acryloyl)-5,6-dihydropyridin-2(1H)-one]	3150				
O=C1C=CCCN1C(=O)/C=C/C1CCN(S(=O)(=O)c2ccc(F)cc2)CC1 [Compound 51, (E)-1-(3-(1-(4-fluorophenylsulfonyl)piperidin-4-yl)acryloyl)-5,6-dihydropyridin-2(1H)-one]		560	570		
O=C(c1ccccc1)N1CCC(/C=C/C(=O)N2CCC=CC2=O)CC1 [Compound 54, 1-[(2E)-3-(1-benzoylpiperidin-4-yl)prop-2-enoyl]-5,6-dihydropyridin-2(1H)-one]	1400				
CC1=CCCN(C(=O)/C=C/c2cnn(C)c2)C1=O [Compound 93, (E)-3-methyl-1-(3-(1-methyl-1H-pyrazol-4-yl)acryloyl)-5,6-dihydropyridin-2(1H)-one]	88300				
Cn1cc(/C=C/C(=O)N2CCC=CC2=O)c2ccccc21 [Compound 52, 1-[(2E)-3-(1-methyl-1H-indol-3-yl)prop-2-enoyl]-5,6-dihydropyridin-2(1H)-one]		1000	1520		
C/C(=C\c1ncccn1)C(=O)N1CCC=C(Cl)C1=O [Compound 46, (E)-3-chloro-1-(2-methyl-3-(pyrimidin-2-yl)acryloyl)-5,6-dihydropyridin-2(1H)-one]	970				
O=C1C=CCCN1C(=O)/C=C/c1ccnnc1 [Compound 39, (E)-1-(3-(pyridazin-4-yl)acryloyl)-5,6-dihydropyridin-2(1H)-one]		300	650		
CS(=O)(=O)N1CCC(/C=C/C(=O)N2CCC=CC2=O)CC1 [Compound 47, 1-{(2E)-3-[1-(methylsulfonyl)piperidin-4-yl]prop-2-enoyl}-5,6-dihydropyridin-2(1H)-one]	3140				
COc1cc(/C=C/C(=O)N2CCC=CC2=O)cc(OC)c1OC [Piperlongumine, 1-[(E)-3-(3,4,5-trimethoxyphenyl)prop-2-enoyl]-2,3-dihydropyridin-6-one]				~1010	~1240
O=C1C=C(Cl)CCN1C(=O)/C=C/c1ncccn1 [Compound 36, (E)-4-chloro-1-(3-(pyrimidin-2-yl)acryloyl)-5,6-dihydropyridin-2(1H)-one]	2970				
CC(C)(O)CN1CCC(/C=C/C(=O)N2CCC=CC2=O)CC1 [Compound 59, 1-{(2E)-3-[1-(2-hydroxy-2-methylpropyl)piperidin-4-yl]prop-2-enoyl}-5,6-dihydropyridin-2(1H)-one]		390	840		
O=C1C=CCCN1C(=O)/C=C/C1CCN(Cc2ccc(F)cc2)CC1 [Compound 60, 1-{3-[1-(4-fluorobenzyl)piperidin-4-yl]prop-2-enoyl}-5,6-dihydropyridin-2(1H)-one]		340	590		
O=C(c1ccc(F)cc1)N1CCC(/C=C/C(=O)N2CCC=CC2=O)CC1 [Compound 50, (E)-1-(3-(1-(4-fluorobenzoyl)piperidin-4-yl)acryloyl)-5,6-dihydropyridin-2(1H)-one]		410	500		
O=C1C=CCCN1C(=O)/C=C/C1CCN(c2ccc(F)cc2)CC1 [Compound 61, 1-{3-[1-(4-fluorophenyl)piperidin-4-yl]prop-2-enoyl}-5,6-dihydropyridin-2(1H)-one]		680	950		
O=C1C=CCCN1C(=O)/C=C/c1ncc2ccccc2n1 [Compound 48, (E)-1-(3-(quinazolin-2-yl)acryloyl)-5,6-dihydropyridin-2(1H)-one]		290	350		
O=C1C=CCCN1C(=O)/C=C/c1cnc2c(n1)OCCO2 [Compound 65, (E)-1-(3-(2,3-dihydro-[1,4]dioxino[2,3-b]pyrazin-6-yl)acryloyl)-5,6-dihydropyridin-2(1H)-one]	2250				
